Reference: patent publication US20160166507A1, “NANOEMULSIONS OF HYDROPHOBIC PLATINUM DERIVATIVES” (NEMUCORE MEDICAL INNOVATIONS, INC., priority 2013, published 2016)

Experiments:
[1] = system: SKOV-3 Ovarian Cancer Cells; experiment: MTT cytotoxicity assay with combination index analysis; type: cell-based, human; conditions: for Degree of Combination Effect: Pt complex with CER
Experimental: In order to determine if the nanoemulsion formulations according to the disclosure produce a cytotoxic effect, the following experiments were done on SKOV3 cells.
A tetrazolium (MTT) assay was performed, which measures the activity of cellular enzymes that reduces the MTT dye to insoluble formazan. SKOV3 cells were treated with corresponding test nanoemulsions or control solutions as indicated below in Table VI. Polyethylenimine at 50 μg/ml was used as a positive control for cytotoxicity. The effect of cis-Pt in solution, nanoemulsion formulations, and EGFR-targeted nanoemulsion formulations of the disclosure on the viability of ovarian SKOV3 cells were studied and measured after 72 hr treatment. After the completion of treatment, cells were incubated with MTT reagent (50 μg/well) for 2 hr. The resulting formazan crystals were dissolved in dimethyl sulfoxide ([…]) and measured at 570 nm in the Plate reader (Synergy HT, Biotek Instruments, Winooski, Vt.).
Values are shown as mean±SD, n=8. All IC50 values were obtained by analyzing the MTT assays results using Graphpad Prism 5 scientific data analysis software.
The optimum concentration of multiple chemotherapeutic agents combined in the nanoemulsion formulations of the present disclosure can be determined by calculating the combination index from the dose response curves of the single agents (Chou (2006) Pharmacol. Rev. 58(3): 621-681). This method uses the isobologram equation below to determine combination index (CI): […]
where, “a” is the primary therapeutic IC50 in combination with secondary therapeutic at concentration “b.” “A” is the primary therapeutic IC50 without secondary therapeutic; and “B” is the secondary therapeutic IC50 in the absence of primary therapeutic. The CI represents the degree of interaction between two drugs regardless of mechanism. […]
For the nanoemulsion formulations of the present disclosure, the ratio of Pt:CER was determined in order to identify ratios that could reduce the IC50 of Pt.

[2] = system: SKOV3 human ovary cancer cells; experiment: In vivo therapeutic efficacy in mice injected ip with SKOV3 cells; set-up: species or system Nu/Nu female mice
Experimental: In order to determine if the nanoemulsion formulations according to the disclosure produce therapeutic efficacy against cancer in vivo, the following experiment was performed. Orthotropic tumors were developed in 30 Nu/Nu female mice, each weighing approximately 20 g (Charles River Laboratories, Cambridge, Mass.). The mice were injected intraperitoneally (ip) with 4×10^6 SKOV3 human ovary cancer cells (ATCC, Manassas, Va.) suspended in phosphate buffered saline100 μl PBS. The 30 mice were divided into 3 test groups of 10 individual mice. Each mouse was then dosed every 7 d for 5 wk with either nothing (control group) or 1 of 2 test compounds. The first test compound (cisplatin) was administered as a comparative sample in 5 mg/kg doses. The second test compound (EGFR-targeted nanoemulsion formulation containing Pt-MMA and ceramide in a 1:5 molar ratio) was administered in 3 cycles of 5 mg/kg platinum and an additional 2 cycles of 7.5 mg/kg platinum. The doses of Pt-MMA (21 mg/kg) and cis-Platin (5 mg/kg) were calculated so that animals received equivalent amounts of Pt. The survival time of each group of mice was determined and the median survival time (days) calculated using Graphpad Kaplan-Meyers survival analysis software on the basis of the observed survival time of each mouse.

[3] = cited from earlier work
[4] = dosed every 7 d for 5 wk, SKOV3, Nu/Nu mice

Compound: CCCCCCCCCCCCC/C=C/[C@H](O)[C@@H](CO)NC(=O)CCCCC [CER in Solution, C6-ceramide]
- IC50 ([1]; Homo sapiens, SK-OV-3, SKOV-3 cells, MTT, 72 hr treatment, mean±SD, n=8, read-out: IC50 (nM), inhibition of growth): 10000 nM

Compound: N.N.[Cl][Pt][Cl] [Cisplatin in Solution, Cis-dichlorodiammine Pt (II)]
- Median Survival ([2]; Kaplan-Meyers analysis, 10 mice per group): 28 days
- Average Tumor Size at 21 Days (mm^3) [2, 4]: 640 ± 314 mm^3
- Time for First Tumor to Reach 1000 mm^3 [2, 4]: 17 days

Compound: N.N.O=C([O-])C1(C(=O)[O-])CCC1.[Pt+2] [carboplatin]
- half life (published values) [3]: 50.4 min

Compound: cis-Diamine Pt (II) Chloride Monomyristic Acid [Cisplatin-mono-myristate]
- Degree of Combination Effect [1]: synergistically

Compound: cis-Diamine Pt (II) Chloride Monopalmitic Acid [Cisplatin-mono-palmitate]
- Degree of Combination Effect [1]: synergistically
